{"source": "patent US20230143612A1", "about": "(Arbutus Biopharma Corporation, priority 2020, published 2023)"}
{"target": "PD-L1 His protein / PD-1 Fc protein (Homo sapiens, UniProt Q9NZQ7)", "sequence (Q9NZQ7 19-238 limits assumed)": "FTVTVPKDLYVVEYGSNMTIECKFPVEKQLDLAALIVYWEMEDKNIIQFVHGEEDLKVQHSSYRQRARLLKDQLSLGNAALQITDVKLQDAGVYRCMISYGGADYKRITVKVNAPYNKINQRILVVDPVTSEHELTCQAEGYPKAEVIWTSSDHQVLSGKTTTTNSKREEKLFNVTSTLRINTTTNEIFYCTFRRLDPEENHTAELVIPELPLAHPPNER", "assay": "HTRF Assay (PD-1/PD-L1 interaction)", "assay_type": "binding", "conditions": "PD-L1 His 6 nM, PD-1 Fc 6 nM", "method_in_brief": "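Compounds tested from 20 μM down to 0.001 μM (3-fold) against 6 nM PD-L1 His and 6 nM PD-1 Fc, 15 min room temperature incubation. Detection after 1 h at room temperature with Tb cryptate anti-6HIS and XL665 anti-human IgG reagents (mixture at 0.35 nM and 6.7 nM), HTRF signal.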", "units": {"IC50": "nM"}}
{"smiles": "COc1nc(-c2cccc(-c3cccc(-c4ccc5c(c4)CCCNC5)c3Cl)c2Cl)ccc1CNC[C@@H]1CCC(=O)N1", "note": "[Example 344, (S)-5-((((6-(2,2′-Dichloro-3′-(2,3,4,5-tetrahydro-1H-benzo[c]azepin-7-yl)-[1,1′-biphenyl]-3-yl)-2-methoxypyridin-3-yl)methyl)amino)methyl)pyrrolidin-2-one]", "IC50": 570}
{"smiles": "COc1nc(-c2cccc(-c3cccc(-c4ccn5c(=O)c(CNCC(C)(C)OC)cnc5c4)c3Cl)c2Cl)ccc1CNC[C@@H]1CCC(=O)N1", "note": "[Example 345, (S)-8-(2,2′-Dichloro-3′-(6-methoxy-5-((((5-oxopyrrolidin-2-yl)methyl)amino)methyl)pyridin-2-yl)-[1,1′-biphenyl]-3-yl)-3-(((2-methoxy-2-methylpropyl)amino)methyl)-4H-pyrido[1,2-a]pyrimidin-4-one]", "IC50": 42}
{"smiles": "COC(=O)CCCNCc1cnc2cc(-c3cccc(-c4cccc(-c5ccc(CNC[C@@H]6CCC(=O)N6)c(OC)n5)c4Cl)c3Cl)ccn2c1=O", "note": "[Example 137, Methyl (S)-4-(((8-(2,2′-dichloro-3′-(6-methoxy-5-((((5-oxopyrrolidin-2-yl)methyl)amino)methyl)pyridin-2-yl)-[1,1′-biphenyl]-3-yl)-4-oxo-4H-pyrido[1,2-a]pyrimidin-3-yl)methyl)amino)butanoate]", "IC50": 1.7}
{"smiles": "COc1nc(-c2cccc(-c3cccc(-c4ccn5c(=O)c(C6=NCC(C(=O)O)N6)cnc5c4)c3Cl)c2Cl)ccc1CNC[C@@H]1CCC(=O)N1", "note": "(mixture of isomers) [Example 179, 2-(8-(2,2′-Dichloro-3′-(6-methoxy-5-(((((S)-5-oxopyrrolidin-2-yl)methyl)amino)methyl)pyridin-2-yl)-[1,1′-biphenyl]-3-yl)-4-oxo-4H-pyrido[1,2-a]pyrimidin-3-yl)-4,5-dihydro-1H-imidazole-5-carboxylic acid]", "IC50": 0.1}
{"smiles": "COc1nc(-c2cccc(-c3cccc(-c4cc5c(=O)n(C)c(CNC[C@H]6CNC(=O)C6)nn5c4)c3Cl)c2Cl)ccc1CNC[C@@H]1CCC(=O)N1", "note": "[Example 476, 6-[2-Chloro-3-[2-chloro-3-[6-methoxy-5-[[[(2S)-5-oxopyrrolidin-2-yl]methylamino]methyl]-2-pyridyl]phenyl]phenyl]-3-methyl-2-[[[(3S)-5-oxopyrrolidin-3-yl]methylamino]methyl]pyrrolo[2,1-f][1,2,4]triazin-4-one]", "IC50": 33}
{"smiles": "CNC(=O)C[C@H](O)CNCc1cnc2cc(-c3cccc(-c4cccc(-c5cc(F)c(CNC[C@@H]6CCC(=O)N6)c(OC)n5)c4Cl)c3Cl)ccn2c1=O", "note": "[Example 293, (3S)-4-[[8-[2-Chloro-3-[2-chloro-3-[4-fluoro-6-methoxy-5-[[[(2S)-5-oxopyrrolidin-2-yl]methylamino]methyl]-2-pyridyl]phenyl]phenyl]-4-oxo-pyrido[1,2-a]pyrimidin-3-yl]methylamino]-3-hydroxy-N-methyl-butanamide]", "IC50": 0.1}
{"smiles": "COc1nc(-c2cccc(-c3cccc(-c4ccn5c(=O)c(CNCC67CCC(C6)C(=O)N7)cnc5c4)c3Cl)c2Cl)ccc1CNC[C@@H]1CCC(=O)N1", "note": "(stereo partly drawn) [Example 252, 8-[2-Chloro-3-[2-chloro-3-[6-methoxy-5-[[[(2S)-5-oxopyrrolidin-2-yl]methylamino]methyl]-2-pyridyl]phenyl]phenyl]-3-[[(3-oxo-2-azabicyclo[2.2.1]heptan-1-yl)methylamino]methyl]pyrido[1,2-a]pyrimidin-4-one]", "IC50": 4.7}
{"smiles": "COc1nc(-c2cccc(-c3cccc(-c4cc(C)n5c(=O)c(CN[C@H]6C[C@@](C)(O)C6)cnc5c4)c3Cl)c2Cl)ccc1CNC[C@@H]1CCC(=O)N1", "note": "[Example 254, 8-(2,2′-Dichloro-3′-(6-methoxy-5-(((((S)-5-oxopyrrolidin-2-yl)methyl)amino)methyl)pyridin-2-yl)-[1,1′-biphenyl]-3-yl)-3-((((1s,3s)-3-hydroxy-3-methylcyclobutyl)amino)methyl)-6-methyl-4H-pyrido[1,2-a]pyrimidin-4-one]", "IC50": 61}
{"smiles": "COc1nc(-c2cccc(-c3cccc(-c4ccc5nc(CNC[C@@H](O)CC(=O)N(C)C)cn5n4)c3Cl)c2Cl)ccc1CNC[C@@H]1CCC(=O)N1", "note": "[Example 355, (3S)-4-[[6-[2-Chloro-3-[2-chloro-3-[6-methoxy-5-[[[(2S)-5-oxopyrrolidin-2-yl]methylamino]methyl]-2-pyridyl]phenyl]phenyl]imidazo[1,2-b]pyridazin-2-yl]methylamino]-3-hydroxy-N,N-dimethyl-butanamide]", "IC50": 0.1}
{"smiles": "COC(=O)CNCc1cnc2cc(-c3cccc(-c4cccc(-c5ccc(CNC[C@@H]6CCC(=O)N6)c(OC)n5)c4Cl)c3Cl)ncc2c1", "note": "[Example 305, (S)-Methyl 2-(((7-(2,2′-dichloro-3′-(6-methoxy-5-((((5-oxopyrrolidin-2-yl)methyl)amino)methyl)pyridin-2-yl)-[1,1′-biphenyl]-3-yl)-1,6-naphthyridin-3-yl)methyl)amino)acetate]", "IC50": 0.4}
{"smiles": "COc1cc(-c2cccc(-c3cccc(-c4ccn5c(=O)c(CNC[C@@H]6CCC(=O)N6)cnc5c4)c3C)c2Cl)ccc1CNC[C@@H]1CCC(=O)N1", "note": "[Example 66, 8-(2′-Chloro-3″-methoxy-2-methyl-4″-(((((S)-5-oxopyrrolidin-2-yl)methyl)amino)methyl)-[1,1′:3′,1″-terphenyl]-3-yl)-3-(((((S)-5-oxopyrrolidin-2-yl)methyl)amino)methyl)-4H-pyrido[1,2-a]pyrimidin-4-one]", "IC50": 5.2}
{"smiles": "COc1nc(-c2cccc(-c3cccc(-c4ccc5c(n4)N(C)CCC5NCc4cncc(F)c4)c3Cl)c2Cl)ccc1CNC[C@@H]1CCC(=O)N1", "note": "(mixture of isomers) [Example 91, (5S)-5-((((6-(2,2′-Dichloro-3′-(5-(((5-fluoropyridin-3-yl)methyl)amino)-8-methyl-5,6,7,8-tetrahydro-1,8-naphthyridin-2-yl)-[1,1′-biphenyl]-3-yl)-2-methoxypyridin-3-yl)methyl)amino)methyl)pyrrolidin-2-one]", "IC50": 180}
{"smiles": "COc1nc(-c2cccc(-c3cccc(-c4ccn5c(=O)c(CNC[C@@H](O)CC(=O)O)cnc5c4)c3Cl)c2Cl)ccc1CNC[C@@H]1CCC(=O)N1", "note": "[Example 126, (S)-4-(((8-(2,2′-Dichloro-3′-(6-methoxy-5-(((((S)-5-oxopyrrolidin-2-yl)methyl)amino)methyl)pyridin-2-yl)-[1,1′-biphenyl]-3-yl)-4-oxo-4H-pyrido[1,2-a]pyrimidin-3-yl)methyl)amino)-3-hydroxybutanoic acid]", "IC50": 0.4}
{"smiles": "COc1nc(-c2cccc(-c3cccc(-c4ccc5c(c4)OCCC5NC[C@@H]4CCC(=O)N4)c3Cl)c2Cl)ccc1CNC[C@@H]1CCC(=O)N1", "note": "(mixture of isomers) [Example 326, (5S)-5-((((6-(2,2′-Dichloro-3′-(4-((((S)-5-oxopyrrolidin-2-yl)methyl)amino)chroman-7-yl)-[1,1′-biphenyl]-3-yl)-2-methoxypyridin-3-yl)methyl)amino)methyl)pyrrolidin-2-one]", "IC50": 24}
{"smiles": "COc1cc2c(cc1CNC[C@@H]1CCC(=O)N1)CCC2=Cc1cccc(-c2cccc(-c3ccc(CNC[C@@H]4CCC(=O)N4)c(OC)n3)c2Cl)c1Cl", "note": "[Example 228, (S)-5-((((6-(2,2′-Dichloro-3′-((6-methoxy-5-(((((S)-5-oxopyrrolidin-2-yl)methyl)amino)methyl)-2,3-dihydro-1H-inden-1-ylidene)methyl)-[1,1′-biphenyl]-3-yl)-2-methoxypyridin-3-yl)methyl)amino)methyl)pyrrolidin-2-one]", "IC50": 3200}
{"smiles": "COc1nc(-c2cccc(-c3cccc(-c4ccc5nc(CNC[C@@H]6CCC(=O)N6)oc5c4)c3Cl)c2Cl)ccc1CNC[C@@H]1CCC(=O)N1", "note": "[Example 248, (S)-5-((((6-(2,2′-Dichloro-3′-(2-(((((S)-5-oxopyrrolidin-2-yl)methyl)amino)methyl)benzo[d]oxazol-6-yl)-[1,1′-biphenyl]-3-yl)-2-methoxypyridin-3-yl)methyl)amino)methyl)pyrrolidin-2-one]", "IC50": 250}
{"smiles": "COc1nc(-c2cccc(-c3cccc(-c4ccn5c(=O)c(CNCC(C)(O)C6CC6)cnc5c4)c3Cl)c2Cl)ccc1CNC[C@@H]1CCC(=O)N1", "note": "(mixture of isomers) [Example 280, 3-(((2-cyclopropyl-2-hydroxypropyl)amino)methyl)-8-(2,2′-dichloro-3′-(6-methoxy-5-(((((S)-5-oxopyrrolidin-2-yl)methyl)amino)methyl)pyridin-2-yl)-[1,1′-biphenyl]-3-yl)-4H-pyrido[1,2-a]pyrimidin-4-one]", "IC50": 37}
{"smiles": "COc1nc(-c2cccc(-c3cccc(-c4cc5c(=O)n(C)c(CNCC(C)(C)O)nn5c4)c3Cl)c2Cl)cc(Cl)c1CNC[C@@H]1CCC(=O)N1", "note": "[Example 478, (S)-6-(2,2′-Dichloro-3′-(4-chloro-6-methoxy-5-((((5-oxopyrrolidin-2-yl)methyl)amino)methyl)pyridin-2-yl)-[1,1′-biphenyl]-3-yl)-2-(((2-hydroxy-2-methylpropyl)amino)methyl)-3-methylpyrrolo[2,1-f][1,2,4]triazin-4(3H)-one]", "IC50": 29}
{"smiles": "COc1nc(-c2cccc(-c3cccc(-c4ccn5ncc(CNC[C@@H]6CCC(=O)N6)c5n4)c3Cl)c2Cl)ccc1CNC[C@@H]1CCC(=O)N1", "note": "[Example 282, (S)-5-((((6-(2,2′-Dichloro-3′-(3-(((((S)-5-oxopyrrolidin-2-yl)-methyl)amino)-methyl)-pyrazolo[1,5-a]pyrimidin-5-yl)-[1,1′-biphenyl]-3-yl)-2-methoxypyridin-3-yl)methyl)-amino)methyl)-pyrrolidin-2-one]", "IC50": 8.7}
{"smiles": "COc1nc(-c2cccc(-c3cccc(-c4cc(OC)c5c(CNC[C@@H]6CCC(=O)N6)cnn5c4)c3Cl)c2Cl)ccc1CNC[C@@H]1CCC(=O)N1", "note": "[Example 397]", "IC50": 290}
{"smiles": "COc1nc(-c2cccc(-c3cccc(-c4ccn5c(=O)c(CNCCC(=O)O)cnc5c4)c3Cl)c2Cl)ccc1CNC[C@@H]1CCC(=O)N1", "note": "[Example 182, (S)-3-(((8-(2,2′-Dichloro-3′-(6-methoxy-5-((((5-oxopyrrolidin-2-yl)methyl)amino)methyl)pyridin-2-yl)-[1,1′-biphenyl]-3-yl)-4-oxo-4H-pyrido[1,2-a]pyrimidin-3-yl)methyl)amino)propanoic acid]", "IC50": 0.1}
